The text below walks through data of patent publication US6680379B1, “Organic anion transporter genes and proteins” (Metabasis Therapeutics, Inc., priority 1999, dated 2004).

Test [1] has as its target T1, hOAT2A (Homo sapiens, UniProt Q9Y694).
T1 sequence (Q9Y694 1-546 isoform Q9Y694-2): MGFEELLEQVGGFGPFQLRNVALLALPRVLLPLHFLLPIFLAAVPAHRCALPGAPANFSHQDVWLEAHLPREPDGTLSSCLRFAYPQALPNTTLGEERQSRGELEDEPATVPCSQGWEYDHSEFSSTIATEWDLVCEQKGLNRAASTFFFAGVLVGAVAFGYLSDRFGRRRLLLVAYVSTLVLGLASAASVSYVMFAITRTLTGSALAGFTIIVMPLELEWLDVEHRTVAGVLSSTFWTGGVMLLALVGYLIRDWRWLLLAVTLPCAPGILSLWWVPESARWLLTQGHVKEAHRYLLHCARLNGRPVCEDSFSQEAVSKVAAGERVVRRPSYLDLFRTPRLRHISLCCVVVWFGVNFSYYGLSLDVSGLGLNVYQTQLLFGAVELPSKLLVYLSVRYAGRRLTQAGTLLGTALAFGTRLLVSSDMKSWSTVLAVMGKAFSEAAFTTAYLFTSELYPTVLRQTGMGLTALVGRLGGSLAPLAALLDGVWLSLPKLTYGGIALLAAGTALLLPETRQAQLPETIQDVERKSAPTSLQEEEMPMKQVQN
Briefly: Competition assay of 3H-PAH uptake in EcR293/OAT2A cells. The test is classed as cell-based. On the set-up: Isolation of Full-length Human OAT2A and OAT2B cDNA; expressed in transfected cells; host or cells: EcR293 (Invitrogen). The following applies: 100 μM competitor.

Test [2] has as its target T1, hOAT2A. As to the kind of experiment: 3H-PAH uptake in EcR293 cells stably containing pIND(sp1)-hOAT2A, ponasterone induced. The following applies: EcR293, 1.25 μg/ml ponasterone for 24 hours.
Source text: Vector pIND(sp1) (Invitrogen) contains the ecdysone-inducible promoter (EcRE). […] After cloning, the vectors were separately transfected into cell line EcR293 (Invitrogen). […] The pVgRXR vector constitutively expresses the ecdysone receptor and the retinoid X receptor (RXR). The ecdysone receptor and RXR form a heterodimer which, upon activation by the hormone ecdysone, binds to a promoter containing the EcRE. The pVgRXR vector was maintained within the EcR293 cell line by selection with 400 μg/ml zeocin. The pIND(sp1)-hOAT plasmids contain a neomycin resistance marker, and cells stably integrating the plasmids were selected for by culturing the cells in media supplemented with 400 μg/ml G418. After two weeks of selection, individual colonies appeared and were isolated and expanded. […] The cells were then subjected to standard transport assays.
Expression of hOAT1 at high levels can be easily achieved by inducing with ponasterone for twenty-four (24) hours.

For the compound `O=C1OC(c2ccc(O)c(S(=O)(=O)O)c2)(c2ccc(O)c(S(=O)(=O)O)c2)c2c(Br)c(Br)c(Br)c(Br)c21` [BSP, sulfobromophthalein], the “effect on uptake of 3H-PAH in EcR293/OAT2A cells” value is “blocked” in test [1] and “competed” in test [1] (listed as sulfobromophthalein).
For the compound `Nc1ccc(C(=O)NCC(=O)O)cc1` [PAH, p-aminohippurate], in test [2], the “3H-PAH uptake, ponasterone induced versus non-induced cells (hOAT2A)” value is given as “approximately 2.6 fold”.
